Experiments:
[1] = tested on: active caspases; test: In vivo labeling of active caspases with [125I]-M808 in CLP-operated mice (thymi extracts); design: species or system mouse; conditions: i.v. injection in CLP mice, radiolabeled p17 in thymi, FIG. 6
Method: FIG. 6. A-Schematic representation of in vivo labeling of active caspases with [^125I]-M808 in CLP-operated mice. Mice underwent either sham surgery (n=2) or CLP surgery (n=5). [^125I]-M808 was injected intravenously 23.15 h later, and animals were euthanized 24 h post-surgery. B-Caspase-3 western blot of mouse thymi extracts following CLP and administration of [^125I]-M808. Arrows indicate full length pro-caspase-3 (p32) and the processed caspase large subunit (p17). C— in-vivo [^125I]-M808-labeled protein in thymi extracts from septic mice. Arrow points to a radiolabeled caspase large subunit.
Female Sprague-Dawley rats (250-300 g; Charles River, St-Constant, Qc, Canada) and ND4 mice (20-25 g Harlane Sprague-Dawley) were housed in a 12 hour light/dark cycle with free access to food and water. All procedures were carried out under appropriate Animal Care Committee approval in strict accordance to Merck and Co. animal care policies. For Cecal Ligation and Perforation, animals were anesthetized with 2.5% isoflurane and body temperature maintained by use of a thermoregulated heated blanket. A midline incision was made in the abdominal wall of the animal and the cecum exteriorized. The cecum was ligated with a nylon (4-0) suture proximal to the ileocecal valve. In mice, perforation of the cecum was done using a 23 g needle passed through the distal portion of the cecum. […]

[2] = target: T1, caspase-3 (Rattus norvegicus, UniProt P55213); test: Saturation labeling of caspases in protein extracts of thymi from CLP-operated rats dosed with M867; format: binding; conditions: low specific activity probe, 80 μg rat thymus extract
T1 construct: endogenous in cells; host or cells: primary rat thymocytes (Sprague-Dawley), spontaneous apoptosis in culture
T1 sequence (P55213 29-175 limits assumed): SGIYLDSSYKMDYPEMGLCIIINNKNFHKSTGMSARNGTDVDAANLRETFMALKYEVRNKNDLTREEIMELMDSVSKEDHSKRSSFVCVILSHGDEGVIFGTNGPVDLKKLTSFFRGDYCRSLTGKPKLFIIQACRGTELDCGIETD
T1 sequence (P55213 176-277 limits assumed): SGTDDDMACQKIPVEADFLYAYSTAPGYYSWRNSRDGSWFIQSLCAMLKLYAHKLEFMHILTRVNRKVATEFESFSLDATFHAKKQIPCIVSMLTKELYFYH
Method: FIG. 7. Comparison of p17 caspase labeled with [^125I]-M808 for a short or a long incubation period. Septic rats were dosed intravenously with either vehicle or the indicated concentration of M867. Thymi were collected 24 hours post-CLP surgery. Western blot showing the appearance of cleaved p17 caspase-3. Partial caspase-3 labeling with high specific activity probe for 5 minutes. Saturated [^125I]-M808 labeling of active caspases in the same thymi extracts with low specific activity probe for 3 hours or 18 hours. During the long incubation period, M867 originally present on caspase-3 (seen from low or absent labeling) dissociates from the active site and is replaced by the irreversible active site probe [^125I]-M808. Displacement is essentially complete by 3 hours since no change in labeling intensity was observed between a 3 h and 18 h incubation period at 37° C.
Quantitation of total amount of active caspase can be determined by exposing protein extracts from either cultured cells (Jurkats, thymocytes) of CLP-derived rat thymi to low-specific activity [^125I]-M808 for long period of time. Briefly, 80 μg of rat thymus protein extracts from CLP-operated rats dosed with M867, were incubated for 3 hours or 18 hours with 1250 M808 (5 nM at 2000 Ci/mmole) and M808 (395 nM). […]

COc1ccc(I)cc1CC(=O)N[C@H](C(=O)NC(CC(=O)O)C(=O)CF)C(C)C (stereo partly drawn) [[^125I]-M808, 5-fluoro-3-({N-[(5-iodo-2-methoxyphenyl)acetyl]-L-valyl}amino)-4-oxopentanoic acid]
detection of active caspases in vivo [1]: can detect active caspases in vivo | incubation time sufficient to label all active caspase-3 quantitatively [2]: 3 h

Source: patent US20060069038A1, “Irreversible caspase-3 inhibitors as active site probes” (priority 2003, published 2006)
